Drawing on patent publication US9346812B2, “Substituted pyrrolopyrimidine compounds, compositions thereof, and methods of treatment therewith” (Signal Pharmaceutical LLC, priority 2013, dated 2016), this text covers IC50 for 28 compounds.

Bounds are passed on as bounds.

The subject of the test is CAL51 cell proliferation. Description: Cell Titer Glo Proliferation Assay (CAL51). The format is cell-based, human. The conditions noted are these: Homo sapiens, CAL-51; CAL51 cell proliferation, 72 h, Cell Titer Glo luminescence; read-out: Act. Level. The method in brief:
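Viability is measured by CellTiter-Glo luminescence after 72 h of compound exposure. CAL51 cells were seeded in growth medium with 10% FBS and 2 mM glutamine, cultured overnight, then dosed with compound dilutions, vehicle held at 0.2% DMSO.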

With `CNC(=O)c1ccc(Nc2nc(NC(C)C)c3c(-c4ccc5nc(C)oc5c4)c[nH]c3n2)c(OC)c1` [Example 202, 4-(4-(isopropylamino)-5-(2-methylbenzo[d]oxazol-6-yl)-7H-pyrrolo[2,3-d]pyrimidin-2-ylamino)-3-methoxy-N-methylbenzamide], the IC50 was < 100 nM. Regarding `CNC(=O)c1ccc(Nc2nc(OC3CCCC3)c3c(-c4cccc(N)c4)c[nH]c3n2)c(OC)c1` [Example 65, 4-(5-(3-aminophenyl)-4-(cyclopentyloxy)-7H-pyrrolo[2,3-d]pyrimidin-2-ylamino)-3-methoxy-N-methylbenzamide], the IC50 is < 100 nM. `CNC(=O)c1ccc(Nc2nc(O[C@H]3CCOC3)c3c(-c4ccnn4C)c[nH]c3n2)c(C(C)C)c1` [Example 225, (S)-3-isopropyl-N-methyl-4-(5-(1-methyl-1H-pyrazol-5-yl)-4-(tetrahydrofuran-3-yloxy)-7H-pyrrolo[2,3-d]pyrimidin-2-ylamino)benzamide]: the IC50 is 1000 to 10000 nM.

On to `CNC(=O)c1ccc(Nc2nc(OC3CCCC3)c3c(-c4ccc(-c5ncc[nH]5)cc4)c[nH]c3n2)c(OC)c1` [Example 48, 4-(5-(4-(1H-imidazol-2-yl)phenyl)-4-(cyclopentyloxy)-7H-pyrrolo[2,3-d]pyrimidin-2-ylamino)-3-methoxy-N-methylbenzamide], for which the IC50 was < 100 nM.

With `Cc1cc(C(=O)N(C)C)ccc1Nc1nc(OC2CCOCC2)c2c(-c3ccn(C)n3)c[nH]c2n1` [Example 113, N,N,3-trimethyl-4-(5-(1-methyl-1H-pyrazol-3-yl)-4-(tetrahydro-2H-pyran-4-yloxy)-7H-pyrrolo[2,3-d]pyrimidin-2-ylamino)benzamide], the IC50 was in the range of 400 to 1000 nM. With `COc1cc(C(=O)NCC2COC2)ccc1Nc1nc(OC2CCCC2)c2c(-c3ccc4nc(C)oc4c3)c[nH]c2n1` [Example 282, 4-(4-(cyclopentyloxy)-5-(2-methylbenzo[d]oxazol-6-yl)-7H-pyrrolo[2,3-d]pyrimidin-2-ylamino)-3-methoxy-N-(oxetan-3-ylmethyl)benzamide] the figure was 100 to 400 nM; with `CNC(=O)c1ccc(Nc2nc(OC3CCOCC3)c3c(-c4ccnc(N)c4)c[nH]c3n2)c(OC)c1` [Example 142, 4-(5-(2-aminopyridin-4-yl)-4-(tetra-hydro-2H-pyran-4-yloxy)-7H-pyrrolo[2,3-d]pyrimidin-2-ylamino)-3-methoxy-N-methylbenzamide], < 100 nM; with `CNC(=O)c1ccc(Nc2nc(OC3CCCC3)c3c(-c4ccc5c(C)noc5c4)c[nH]c3n2)c(OC)c1` [Example 279, 4-(4-(cyclopentyloxy)-5-(3-methylbenzo[d]isoxazol-6-yl)-7H-pyrrolo[2,3-d]pyrimidin-2-ylamino)-3-methoxy-N-methylbenzamide], < 100 nM.

Turning to `CNC(=O)c1ccc(Nc2nc(NC3CCOCC3)c3c(-c4ccc(O)cc4)c[nH]c3n2)c(OC)c1` [Example 40, 4-(5-(4-hydroxyphenyl)-4-(tetrahydro-2H-pyran-4-ylamino)-7H-pyrrolo[2,3-d]pyrimidin-2-ylamino)-3-methoxy-N-methylbenzamide], the IC50 is < 100 nM. Turning to `COc1cc(C(=O)NC2COC2)ccc1Nc1nc(OC2CCCC2)c2c(-c3ccc4nc(C)oc4c3)c[nH]c2n1` [Example 255, 4-(4-(cyclopentyloxy)-5-(2-methylbenzo[d]oxazol-6-yl)-7H-pyrrolo[2,3-d]pyrimidin-2-ylamino)-3-methoxy-N-(oxetan-3-yl)benzamide], the IC50 fell in the range of 100 to 400 nM.

For `CC[C@H](C)Oc1nc(Nc2ccc(C(=O)NC)cc2OC)nc2[nH]cc(-c3ccc4nc(C)oc4c3)c12` [Example 204, (S)-4-(4-sec-butoxy-5-(2-methylbenzo[d]oxazol-6-yl)-7H-pyrrolo[2,3-d]pyrimidin-2-ylamino)-3-methoxy-N-methylbenzamide], the IC50 lay within 100 to 400 nM. In the case of `CNC(=O)c1ccc(Nc2nc(OC3CCOCC3)c3c(-c4ccc5nc(C)sc5c4)c[nH]c3n2)c(OC)c1` [Example 223, 3-methoxy-N-methyl-4-(5-(2-methylbenzo[d]thiazol-6-yl)-4-(tetrahydro-2H-pyran-4-yloxy)-7H-pyrrolo[2,3-d]pyrimidin-2-ylamino)benzamide], the IC50 is < 100 nM. As for `COc1cc(C(=O)N[C@H](C)CO)ccc1Nc1nc(OC2CCCC2)c2c(-c3ccc4nc(C)oc4c3)c[nH]c2n1` [Example 214, (R)-4-(4-(cyclopentyloxy)-5-(2-methylbenzo[d]oxazol-6-yl)-7H-pyrrolo[2,3-d]pyrimidin-2-ylamino)-N-(1-hydroxypropan-2-yl)-3-methoxybenzamide], the IC50 is < 100 nM. With `CNC(=O)c1ccc(Nc2nc(OC3CCOCC3)c3c(-c4ccc(-c5nccn5C)cc4)c[nH]c3n2)c(OC)c1` [Example 195, 3-methoxy-N-methyl-4-(5-(4-(1-methyl-1H-imidazol-2-yl)phenyl)-4-(tetrahydro-2H-pyran-4-yloxy)-7H-pyrrolo[2,3-d]pyrimidin-2-ylamino)benzamide], the IC50 lay in the range of 1000 to 10000 nM. With `Cc1nc2ccc(-c3c[nH]c4nc(Nc5ccc(C(=O)N(C)C)cc5C)nc(O[C@@H]5CCCOC5)c34)cc2o1` [Example 121, (R)-N,N,3-trimethyl-4-(5-(2-methylbenzo[d]oxazol-6-yl)-4-(tetrahydro-2H-pyran-3-yloxy)-7H-pyrrolo[2,3-d]pyrimidin-2-ylamino)benzamide] the figure was 100 to 400 nM; with `CNC(=O)c1ccc(Nc2nc(OC3CCCC3)c3c(-c4ccc(-c5ccn[nH]5)cc4)c[nH]c3n2)c(OC)c1` [Example 41, 4-(5-(4-(1H-pyrazol-5-yl)phenyl)-4-(cyclopentyloxy)-7H-pyrrolo[2,3-d]pyrimidin-2-ylamino)-3-methoxy-N-methylbenzamide], 100 to 400 nM; with `CNC(=O)c1ccc(Nc2nc(O[C@H]3CC[C@@](C)(O)CC3)c3c(-c4ccc5nc(C)oc5c4)c[nH]c3n2)c(OC)c1` [Example 206, 4-(4-((1s,4s)-4-hydroxy-4-methylcyclohexyloxy)-5-(2-methylbenzo[d]oxazol-6-yl)-7H-pyrrolo[2,3-d]pyrimidin-2-ylamino)-3-methoxy-N-methylbenzamide], < 100 nM.

For `COc1cc(C(=O)N2CCC(O)CC2)ccc1Nc1nc(OC2CCCC2)c2c(-c3ccc4nc(C)oc4c3)c[nH]c2n1` [Example 231, (4-(4-(cyclopentyloxy)-5-(2-methylbenzo[d]oxazol-6-yl)-7H-pyrrolo[2,3-d]pyrimidin-2-ylamino)-3-methoxyphenyl)(4-hydroxy-piperidin-1-yl)methanone], the IC50 is < 100 nM. To `Cc1nc2ccc(-c3c[nH]c4nc(Nc5cnn(C)c5C)nc(OC5CCCC5)c34)cc2o1` [Example 296, 4-(cyclopentyloxy)-N-(1,5-dimethyl-1H-pyrazol-4-yl)-5-(2-methylbenzo[d]oxazol-6-yl)-7H-pyrrolo[2,3-d]pyrimidin-2-amine] belongs < 100 nM; to `COc1cc(C(=O)N[C@H]2CCC[C@H]2O)ccc1Nc1nc(OC2CCCC2)c2c(-c3ccc4nc(C)oc4c3)c[nH]c2n1` [Example 264, 4-(4-(cyclopentyloxy)-5-(2-methylbenzo[d]oxazol-6-yl)-7H-pyrrolo[2,3-d]pyrimidin-2-ylamino)-N-((1S,2R)-2-hydroxycyclopentyl)-3-methoxy-benzamide], 100 to 400 nM; to `CNC(=O)c1ccc(Nc2nc(OC3CCCC3)c3c(-c4ccc(NC(N)=O)cc4)c[nH]c3n2)c(OC)c1` [Example 39, 4-(4-(cyclopentyloxy)-5-(4-ureidophenyl)-7H-pyrrolo[2,3-d]pyrimidin-2-ylamino)-3-methoxy-N-methylbenzamide], < 100 nM. With `CNC(=O)c1ccc(Nc2nc(OC)c3c(-c4ccncc4)c[nH]c3n2)c(OC)c1` [Example 190, 3-methoxy-4-(4-methoxy-5-(pyridin-4-yl)-7H-pyrrolo[2,3-d]pyrimidin-2-ylamino)-N-methylbenzamide] the figure was < 100 nM; with `CNC(=O)c1ccc(Nc2nc(OC3CCOCC3)c3c(-c4cnn(C)c4)c[nH]c3n2)c(OC)c1` [Example 184, 3-methoxy-N-methyl-4-(5-(1-methyl-1H-pyrazol-4-yl)-4-(tetrahydro-2H-pyran-4-yloxy)-7H-pyrrolo[2,3-d]pyrimidin-2-ylamino)benzamide], < 100 nM. With `COc1cc(C(=O)NC[C@H](C)O)ccc1Nc1nc(OC2CCCC2)c2c(-c3ccc4nc(C)oc4c3)c[nH]c2n1` [Example 240, (S)-4-(4-(cyclopentyloxy)-5-(2-methylbenzo[d]oxazol-6-yl)-7H-pyrrolo[2,3-d]pyrimidin-2-ylamino)-N-(2-hydroxypropyl)-3-methoxybenzamide] the figure was 100 to 400 nM; with `Cc1nc2ccc(-c3c[nH]c4nc(Nc5ccc(C(=O)N6CCOCC6)cc5C)nc(OC5CCCC5)c34)cc2o1` [Example 86, (4-(4-(cyclopentyloxy)-5-(2-methylbenzo[d]oxazol-6-yl)-7H-pyrrolo[2,3-d]pyrimidin-2-ylamino)-3-methylphenyl) (morpholino)methanone], 100 to 400 nM; with `Cc1nc2ccc(-c3c[nH]c4nc(Nc5ccc(C(=O)N(C)C)cc5C)nc(OC5CCN(C)CC5)c34)cc2o1` [Example 95, N,N,3-trimethyl-4-(5-(2-methylbenzo[d]oxazol-6-yl)-4-(1-methylpiperidin-4-yloxy)-7H-pyrrolo[2,3-d]pyrimidin-2-ylamino)benzamide], 400 to 1000 nM. As to `COc1cc(C(=O)NN2CCCCC2)ccc1Nc1nc(OC2CCCC2)c2c(-c3ccc4nc(C)oc4c3)c[nH]c2n1` [Example 292, 4-(4-(cyclopentyloxy)-5-(2-methylbenzo[d]oxazol-6-yl)-7H-pyrrolo[2,3-d]pyrimidin-2-ylamino)-3-methoxy-N-(piperidin-1-yl)benzamide], the IC50 fell in the range of 100 to 400 nM. With `CNC(=O)c1ccc(Nc2nc(OC3CCCC3)c3c(-c4ccc5nn[nH]c5c4)c[nH]c3n2)c(OC)c1` [Example 27, 4-(5-(1H-benzo[d][1,2,3]triazol-6-yl)-4-(cyclopentyloxy)-7H-pyrrolo [2,3-d]pyrimidin-2-ylamino)-3-methoxy-N-methylbenzamide] the figure was < 100 nM.
